Data reported in patent US20080039533A1, “Bioactive Compositions Comprising Triazines” (3M INNOVATIVE PROPERTIES COMPANY, priority 2003, published 2008).
Values after ≈ are worked out from the molar mass of the structure shown.

Assay: physchem
Settings: buffer solution without triazine compound

solubility (pH 6.05, aqueous buffer): 20 µg/mL (≈ 83.2 µM)
solubility (pH 7.82, aqueous buffer): 1.2 µg/mL (≈ 4.99 µM)
Compound: CC(C)Cn1cnc2c(N)nc3ccccc3c21 [Imiquimod]
